Results: paper PMC3230704 (Molecular pharmaceutics, 2011)
Where no end group is shown, it is not given here.

Key:
MDA-MB-435 tumor = assay: In vivo NIR fluorescence imaging of MT1-MMP-positive tumor-bearing mice
MT1-MMP (MMP-14) = MT1-MMP (MMP-14) (Homo sapiens, UniProt P50281); assay: Fluorescence activation of MT-P by activated MT1-MMP; format: biochemical; details: MT1-MMP 0, 4, 20 and 40 nM, 60 min, spectrofluorimetry
[1] = system: MDA-MB-435 tumor-bearing mice; assay: Ex vivo biodistribution imaging of excised tumors and organs; format: in vivo; details: 24 hrs post-injection, without inhibitor
MT1-MMP = details: cited from earlier work

Row | Substance | onset of activation in tumor (MDA-MB-435 tumor; 5 nmol i.v., MDA-MB-435 tumor-bearing mice) | fluorescent signal in the tumor at 48 hrs post-injection (MDA-MB-435 tumor; 48 hrs post-injection) | activation of NIR fluorescent signals over the probe without MT1-MMP (MT1-MMP (MMP-14)) | biodistribution of activated fluorescence [1] | specificity constant (kcat/Km) (MT1-MMP)
1 | GRIGFLRTAKGG [MT-P] | less than 1 hr | not detectable | up to 10 fold | activated predominantly in the tumor and liver over other organs | 
2 | RIGFLR |  |  |  |  | 777,200 M^−1s^−1
